The text below walks through data of US8497075B2, “Methods of identifying a modulator that inhibits the binding between Epstein-Barr virus induced receptor 2 and cholesterol derived ligands” (Novartis AG, priority 2008, dated 2013).

Test [1] addresses T1, hEBI2 (Homo sapiens, UniProt P32249). Description: GTPγS assay on EBI2 membranes. Format: biochemical. More on the design: expressed in transfected cells; host or cells: CHO-K1 expressing apoaequorin (CHO-Aeq) with Gqi5; line E2. As to the method:
(§1) The cell suspension was then homogenized using a Dounce homogenizer (10 strokes) with a driller. After centrifugation at 110000×g for 45 minutes and removal of the supernatant, pellets were resuspended in sucrose buffer (50 mM Tris pH7.2, 250 mM sucrose, 10% glycerol) by vortexing. The suspension was again homogenize using a Dounce homogenizer (10 strokes) and spun at 100000×g for 45 minutes. The supernatant was discarded, the pellet resuspended in sucrose buffer, protein concentration determined, aliquoted and frozen at −80° C. These membrane preparations were used in binding as well as GTPgS assays.
Ten micrograms of EBI2 membranes are dissolved in 40 μl of buffer A (20 mM Hepes pH 7.4, 100 mM NaCl, 1.5 mM MgCl2, Saponin 10 μg/ml) supplemented with 10 μM GDP. After addition of […] scintilation proximity assay (SPA) beads (100 μg/well, Amersham, RPNQ0001) components are gently mixed and incubated at RT for 15 minutes. Twenty microliters of compound diluted in buffer A and 20 μl of GTPγ^35S (Perkin Elmer NEG030X) is added before incubation for one hour at RT. Plates are transferred and counted in a TopCount (Perkin Elmer NXT HTS™) and counts are analysed plotted and to determine half maximal concentrations of activation using standard software (Prism™, GraphPad Software Inc.).

The target in test [2] is T1, hEBI2. Nature of the test: [3H] 7a,25DHC radio-ligand binding assay (SPA), IC50 determination. More on the design: expressed in transfected cells; host or cells: CHO-K1 expressing apoaequorin (CHO-Aeq) with Gqi5; line E2. The method, then:
as §1
Lyophilized wheat germ agglutinin scintilation proximity assay (SPA) beads (RPNQ0001) were purchased from GE Healthcare (Buckinghamshire, UK). One vial (500 mg) is reconstituted by adding 5 mL of distilled water to give a final concentration of 100 mg/mL. Reconstituted SPA beads must be stored at 4° C., but must not be frozen. [3H]-7a,25-OHC, was synthesized by reduction of the 7-keto, 25DHC in the presence of 3H-L-selectride.
The SPA assay was performed in a final volume of 50 μl per well in a 384-well polystyrene Opti plate. The components were added into the wells as follows: • 10 μl tested compounds in 50 mM Tris; 100 mM NaCl; 5 mM MgCl2 and 0.1% Cyclodextrine.
Total binding was determined by the addition of 10 μl of 50 mM Tris; 100 mM NaCl; 5 mM MgCl2 and 0.1% Cyclodextrine and non-specific binding was determined by the addition of 10 μl NVP-BYX998-NX-4 (final concentration of 10 μM). • 20 μL of 10 nM final [3H]-BYX998 in assay buffer (50 mM Tris-HCl, 100 mM NaCl, 5 mM MgCl2 and 0.1% Cyclodextrine). • 20 μL of a mixed bead and membrane suspension in assay buffer, in order to get a final concentration of 20 μg membranes/well and 200 μg beads/well.
The plates were sealed and shaken at room temperature for 10 minutes then allowed to stand at room temperature for at least 12 hours. The plates were counted using a Perkin Elmer TopCount reader, each well being counted for 1 minute.
Each IC50 determination was performed with 11 concentrations.
A standard data reduction algorithm was used to calculate the percentage of specific binding in the presence of test compound as follows: ((B−NSB)/(Total−NSB))·100, where B=Binding in the presence of test compound (in cpm) NSB=Non-specific binding in the presence of excess inhibitor (in cpm) Total=Binding in the absence of test compound (in cpm) Curve fitting of the normalized concentration response curves using a four parameter logistic fit is then performed using XLfit (v.2 or v.4, IDBS, Guildford, UK). The equation used is XLfit equation no. […] By default, min is fixed at 0, whereas max is not fixed.

Test [3] deals with T1, hEBI2. Description: calcium fluorescence (FLIPR). It counts as cell-based. More on the design: expressed in transfected cells; host or cells: CHO-K1 expressing apoaequorin (CHO-Aeq) with Gqi5; line E2. As to the method:
If not stated otherwise compounds were dissolved at 10 mM in DMSO or ethanol (cholesterol, 25MDC). Serial dilutions were carried out in 90% DMSO (FLIPR, GTPgS) or assay buffer (binding assay). For cell based assays final DMSO concentrations is kept below 1%.
If not stated otherwise, the same Chinese hamster ovary (CHO) cell line called E2 which was used for the ligand identification was used in these experiments. This cell line is expressing (1) the recombinant human EBI2 receptor, (2) the promiscuous Gqi5 protein as well as (3) apo-aequorin.
Cells were seeded in black/clear bottom, poly-D-Lysine coated 384-well plates at a cell density of 10,000 cells/25 μL/well, using culture medium. Cells were cultured for 24 hours at 37° C./5% CO2. Culture medium was removed and for cell loading, 20 μl per well of loading buffer (Calcium-4 no wash dye) were distributed into the wells and the plates were incubated for 60 min at 37° C. in 5% CO2. With the FLIPR pipettor, 10 μl of the different compounds were added to the cells and the subsequent fluorescent changes monitored for 3 minutes. Using the FLIPR software tool, 2 values of fluorescence calcium responses were exported: Fmax, the fluorescence at the peak and Fbasal corresponding to the value prior to compound injection. From these two values, the calcium response is normalized with respect to the calcium baseline values using dF/F=(Fmax−Fbasal)/Fbasal. The maximum dF/F is called Emax.

For test [4], the target named is T1, hEBI2. Nature of the test: saturation binding, KD determination. The arrangement: expressed in transfected cells; host or cells: CHO-K1 expressing apoaequorin (CHO-Aeq) with Gqi5; line E2. As to the method:
as §1, with “CHO cells stably expressing human EBI2 (E2) were grown in roller bottles (Corning #431191) to confluency, washed with phosphate buffered saline (PBS) once and frozen at −80° C. The frozen cell pellets were resuspended in ice-cold homogenization buffer (10 ml/gram, 20 mM Tris pH7.2) supplemented with a protease inhibitor cocktail (Complete™, Roche, #05 056 489 001-14302200). The cell” for “The cell”
These solutions were made in buffer containing 50 mM Tris; 100 mM NaCl; 5 mM MgCl2 and 0.1% Cyclodextrine.
[…] was measured in presence of a constant 7a,25DHC (NVP-BYX998-NX-4) concentration of 10 uM final and the corresponding total binding was measured with buffer instead of NVP-BYX998-NX-4. […]

The subject of test [5] is RS11846 cells. Nature of the test: chemotaxis 96 transwell assay. Format: cell-based. The method, then: B cells (RS11846 or EBV-infected human B-cells) or murine bone marrow-derived dendritic cells were washed once with medium and resuspended at 1×10^6/ml. 100 μl of this suspension was added into the wells of the filter plate and gently placed into the receiver plate containing 150 μl of a given compound dilution. The final DMSO concentration was less then 0.1%. After migration for 3 hr at 37° C. in an incubator, the filter plate was carefully removed from the receiver plate and discarded. The migrated cells in the receiver plate were resuspended and transferred into round-bottom 96-well plate, centrifuged and resuspended in 100 μl PBS containing 2% FCS and 0.1% NaN3 (FACS buffer). The input cells (100 μl) were similarly processed. For the calculation of the specific migration, a fixed number of beads (10000; Invitrogen #PCB100)) in 20 μl FACS buffer was added and the suspension was analyzed by flow cytometry using a FACS instrument PAS™ (Partec). Cells were identified based on their forward scatter (FSC) and side scatter (SSC) pattern. Chemotaxis is expressed either as total cell number or as percent of input cells.

T1 sequence (P32249 whole entry): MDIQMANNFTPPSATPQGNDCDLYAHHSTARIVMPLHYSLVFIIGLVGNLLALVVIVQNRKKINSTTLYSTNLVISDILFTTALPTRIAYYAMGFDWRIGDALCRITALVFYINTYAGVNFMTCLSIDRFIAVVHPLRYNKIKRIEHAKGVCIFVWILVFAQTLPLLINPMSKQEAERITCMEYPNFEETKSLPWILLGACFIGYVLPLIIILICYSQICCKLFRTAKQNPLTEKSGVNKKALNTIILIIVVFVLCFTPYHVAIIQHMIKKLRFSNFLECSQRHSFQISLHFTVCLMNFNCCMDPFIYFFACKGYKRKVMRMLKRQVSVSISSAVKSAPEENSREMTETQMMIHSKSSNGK

Usually EC50 stands for the concentration needed to bring the measured effect to its halfway point. As usually defined, the IC50 is the midpoint of a concentration-inhibition curve. Read a high IC50 as a need for much substance. In the case of `CC(CO)CCC[C@@H](C)[C@H]1CC[C@H]2[C@@H]3[C@@H](O)C=C4C[C@@H](O)CC[C@]4(C)[C@H]3CC[C@]12C` (stereo partly drawn) [7b,27DHC, cholest-5-ene-3b,7b,27-triol], the EC50 came to 125 nM in test [1] (n = 3-4, read-out: GTPgS EC50) and 310 nM in test [3] (n = 3-4, read-out: FLIPR EC50). This compound also showed an IC50 in test [2] of more than 10000 nM.
As to `C[C@H](CCCC(C)(C)O)[C@H]1CC[C@H]2[C@@H]3CC=C4C[C@@H](O)CC[C@]4(C)[C@H]3CC[C@]12C` [25DHC, 25-hydroxycholesterol], the EC50 in test [1] was found to be 727 nM; in test [3], 3030 nM. Also, the IC50 in test [2] was more than 10000 nM.
Usually Kd stands for the concentration at which binding is half-saturated. The compound `C[C@H](CCCC(C)(C)O)[C@H]1CC[C@H]2[C@@H]3[C@H](O)C=C4C[C@@H](O)CC[C@]4(C)[C@H]3CC[C@]12C` [[^3H]-7a,25DHC] yielded a Kd in test [4] of 25 nM.
Consider `C[C@H](CCCC(C)(C)O)[C@H]1CC[C@H]2[C@@H]3[C@@H](O)C=C4C[C@@H](O)CC[C@]4(C)[C@H]3CC[C@]12C` [[^3H]-7b,25DHC], for which the “specific binding to EBI2 membranes” value in test [4] (data not shown) is “not able to detect specific binding”.
For pertussis toxin [reference compound], in test [5], the “inhibition of 7a,25DHC-mediated chemotaxis of RS11846 cells” value was “blocked”.
